Experimental data from patent US12492173B2, “Herbicidal substituted N-tetrazolyl aryl carboxamides” (Bayer Aktiengesellschaft, priority 2019, dated 2025).

Legend:
Type in all cases: in vivo
Setaria viridis [1] = experiment: Pre-emergence herbicidal action, SETVI; design: key to Herbicidal action against SETVI: % activity: 100 = plants have died, 0 = like control plants; details: for herbicidal activity SETVI / herbicidal action SETVI: dosage 320 g/ha; for herbicidal activity SETVI: scored visually after 3 weeks vs untreated controls (100% = plants have died)
In short: (§1)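 Percent damage, assessed visually after 3 weeks and referenced to untreated controls, reflects a pre-emergence treatment. Spray liquid equated to 600 to 800 l/ha with 0.2% wetting agent, applied to the covering soil over seeds in sandy loam.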

Viola tricolor = experiment: Pre-emergence herbicidal action, VIOTR; design: key to Herbicidal action against VIOTR: % activity: 100 = plants have died, 0 = like control plants; details: for herbicidal activity VIOTR / herbicidal action VIOTR: dosage 320 g/ha; for herbicidal activity VIOTR: scored visually after 3 weeks vs untreated controls (100% = plants have died)
In short: as §1

Amaranthus retroflexus = experiment: Post-emergence herbicidal action, AMARE; design: key: % herbicidal action vs untreated; 100 = plants died, 0 = like control
In short: (§2)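 Percent herbicidal effect was judged by eye against untreated controls around 3 weeks after foliar treatment, where 100% meant dead plants. Spraying took place at the one-leaf stage using wettable powder or emulsion concentrate diluted in water (600 to 800 l/ha) with added wetting agent at 0.2%.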

Setaria viridis [2] = experiment: Post-emergence herbicidal action, SETVI; design: key: % herbicidal action vs untreated; 100 = plants died, 0 = like control
In short: as §2

Stellaria media = experiment: Post-emergence herbicidal action, STEME; design: key: % herbicidal action vs untreated; 100 = plants died, 0 = like control
In short: as §2

Veronica persica = experiment: Post-emergence herbicidal action, VERPE; design: key: % herbicidal action vs untreated; 100 = plants died, 0 = like control
In short: as §2

[3] = comparative experiment, 80 g of a.i./ha
[4] = comparative experiment, post-emergence, 20 g of a.i./ha

Cn1nnnc1NC(=O)c1ccc(C(F)(F)F)c(CS(=O)(=O)C2CC2)c1Cl [Example 1-304]
herbicidal activity SETVI (Setaria viridis [1]): 100% | herbicidal activity VIOTR (Viola tricolor): 100% | herbicidal action AMARE (Amaranthus retroflexus; post-emergence, dosage 80 g/ha): 100% | herbicidal action SETVI (Setaria viridis [2]; post-emergence, dosage 80 g/ha): 90% | herbicidal action STEME (Stellaria media; post-emergence, dosage 80 g/ha): 100% | herbicidal action VERPE (Veronica persica; post-emergence, dosage 80 g/ha): 100%

CCCn1nnnc1NC(=O)c1ccc(C(F)(F)F)c(CSCC2CC2)c1Cl [Example 3-314]
herbicidal activity SETVI (Setaria viridis [1]): 100% | herbicidal activity VIOTR (Viola tricolor): 100% | herbicidal action AMARE (Amaranthus retroflexus; post-emergence, dosage 80 g/ha): 100% | herbicidal action SETVI (Setaria viridis [2]; post-emergence, dosage 80 g/ha): 100% | herbicidal action STEME (Stellaria media; post-emergence, dosage 80 g/ha): 100% | herbicidal action VERPE (Veronica persica; post-emergence, dosage 80 g/ha): 100%

CCCn1nnnc1NC(=O)c1ccc(I)c(C[S+](C)[O-])c1Cl (centres unmarked) [Example 3-363]
herbicidal action SETVI (Setaria viridis [1]): 100% | herbicidal action VIOTR (Viola tricolor): 100% | herbicidal action AMARE (Amaranthus retroflexus; Dosage 80 g/ha): 100 | herbicidal action SETVI (Setaria viridis [2]; Dosage 80 g/ha): 100 | herbicidal action STEME (Stellaria media; Dosage 80 g/ha): 100 | herbicidal action VERPE (Veronica persica; Dosage 80 g/ha): 100

CCn1nnnc1NC(=O)c1ccc(C(F)F)c(C[S+](C)[O-])c1SC (centres unmarked) [Example 2-171]
herbicidal activity SETVI (Setaria viridis [1]): 100% | herbicidal activity VIOTR (Viola tricolor): 100% | herbicidal action AMARE (Amaranthus retroflexus; Dosage 80 g/ha): 100 | herbicidal action SETVI (Setaria viridis [2]; Dosage 80 g/ha): 90 | herbicidal action STEME (Stellaria media; Dosage 80 g/ha): 100 | herbicidal action VERPE (Veronica persica; Dosage 80 g/ha): 100

CCn1nnnc1NC(=O)c1ccc(C(F)(F)F)c(C[S+](C)[O-])c1SC (centres unmarked) [Example 2-162]
herbicidal activity SETVI (Setaria viridis [1]): 100% | herbicidal activity VIOTR (Viola tricolor): 100% | herbicidal action AMARE (Amaranthus retroflexus; Dosage 80 g/ha): 90 | herbicidal action SETVI (Setaria viridis [2]; Dosage 80 g/ha): 90 | herbicidal action STEME (Stellaria media; Dosage 80 g/ha): 100 | herbicidal action VERPE (Veronica persica; Dosage 80 g/ha): 90

CCn1nnnc1NC(=O)c1ccc(C(F)(F)F)c(CS(=O)(=O)CC)c1C [Example 2-88]
herbicidal action SETVI (Setaria viridis [1]): 100% | herbicidal action VIOTR (Viola tricolor): 100% | herbicidal action AMARE (Amaranthus retroflexus; Dosage 80 g/ha): 90 | herbicidal action SETVI (Setaria viridis [2]; Dosage 80 g/ha): 90 | herbicidal action STEME (Stellaria media; Dosage 80 g/ha): 100 | herbicidal action VERPE (Veronica persica; Dosage 80 g/ha): 100

CCn1nnnc1NC(=O)c1ccc(I)c(C[S+](C)[O-])c1Cl (centres unmarked) [Example 2-363]
herbicidal activity SETVI (Setaria viridis [1]): 100% | herbicidal activity VIOTR (Viola tricolor): 100% | herbicidal action AMARE (Amaranthus retroflexus; Dosage 80 g/ha): 100 | herbicidal action SETVI (Setaria viridis [2]; Dosage 80 g/ha): 90 | herbicidal action STEME (Stellaria media; Dosage 80 g/ha): 100 | herbicidal action VERPE (Veronica persica; Dosage 80 g/ha): 100

CCSCc1c(C(F)(F)F)ccc(C(=O)Nc2nnnn2CC)c1C [Example 2-86]
herbicidal action SETVI (Setaria viridis [1]): 100% | herbicidal action VIOTR (Viola tricolor): 100% | herbicidal action AMARE (Amaranthus retroflexus; post-emergence, dosage 80 g/ha): 80% | herbicidal action SETVI (Setaria viridis [2]; post-emergence, dosage 80 g/ha): 90% | herbicidal action STEME (Stellaria media; post-emergence, dosage 80 g/ha): 100% | herbicidal action VERPE (Veronica persica; post-emergence, dosage 80 g/ha): 90%

CSc1c(C(=O)Nc2nnnn2C)ccc(C(F)F)c1C[S+](C)[O-] (centres unmarked) [Example 1-171]
herbicidal activity SETVI (Setaria viridis [1]): 100% | herbicidal activity VIOTR (Viola tricolor): 100% | herbicidal action AMARE (Amaranthus retroflexus; Dosage 80 g/ha): 100 | herbicidal action SETVI (Setaria viridis [2]; Dosage 80 g/ha): 100 | herbicidal action STEME (Stellaria media; Dosage 80 g/ha): 100 | herbicidal action VERPE (Veronica persica; Dosage 80 g/ha): 100

CCn1nnnc1NC(=O)c1ccc(C(F)(F)F)c(C[S+]([O-])CC2CC2)c1Cl (centres unmarked) [Example 2-315]
herbicidal activity SETVI (Setaria viridis [1]): 100% | herbicidal activity VIOTR (Viola tricolor): 100% | herbicidal action AMARE (Amaranthus retroflexus; Dosage 80 g/ha): 100 | herbicidal action SETVI (Setaria viridis [2]; Dosage 80 g/ha): 100 | herbicidal action STEME (Stellaria media; Dosage 80 g/ha): 100 | herbicidal action VERPE (Veronica persica; Dosage 80 g/ha): 100

Cn1nnnc1NC(=O)c1ccc(C(F)(F)F)c(CSC2CC2)c1Cl [Example 1-302]
herbicidal activity SETVI (Setaria viridis [1]): 100% | herbicidal activity VIOTR (Viola tricolor): 100% | herbicidal action AMARE (Amaranthus retroflexus; post-emergence, dosage 80 g/ha): 100% | herbicidal action SETVI (Setaria viridis [2]; post-emergence, dosage 80 g/ha): 100% | herbicidal action STEME (Stellaria media; post-emergence, dosage 80 g/ha): 100% | herbicidal action VERPE (Veronica persica; post-emergence, dosage 80 g/ha): 90%

CCCn1nnnc1NC(=O)c1ccc(C(F)(F)F)c(CSCC(F)(F)F)c1Cl [Example 3-311]
herbicidal action SETVI (Setaria viridis [1]): 100% | herbicidal action VIOTR (Viola tricolor): 100% | herbicidal action AMARE (Amaranthus retroflexus; Dosage 80 g/ha): 100 | herbicidal action SETVI (Setaria viridis [2]; Dosage 80 g/ha): 80 | herbicidal action STEME (Stellaria media; Dosage 80 g/ha): 100 | herbicidal action VERPE (Veronica persica; Dosage 80 g/ha): 80

COCCSCc1c(C(F)(F)F)ccc(C(=O)Nc2nnnn2C)c1Cl [Example 1-305]
herbicidal activity SETVI (Setaria viridis [1]): 100% | herbicidal activity VIOTR (Viola tricolor): 100% | herbicidal action AMARE (Amaranthus retroflexus; post-emergence, dosage 80 g/ha): 100% | herbicidal action SETVI (Setaria viridis [2]; post-emergence, dosage 80 g/ha): 100% | herbicidal action STEME (Stellaria media; post-emergence, dosage 80 g/ha): 100% | herbicidal action VERPE (Veronica persica; post-emergence, dosage 80 g/ha): 90%

CSCc1c(C(F)(F)F)ccc(C(=O)Nc2nnnn2C)c1C [Example 1-83]
herbicidal activity SETVI (Setaria viridis [1]): 100% | herbicidal activity VIOTR (Viola tricolor): 100% | herbicidal action AMARE (Amaranthus retroflexus; post-emergence, dosage 80 g/ha): 100% | herbicidal action SETVI (Setaria viridis [2]; post-emergence, dosage 80 g/ha): 100% | herbicidal action STEME (Stellaria media; post-emergence, dosage 80 g/ha): 100% | herbicidal action VERPE (Veronica persica; post-emergence, dosage 80 g/ha): 100%

Cn1nnnc1NC(=O)c1ccc(C(F)(F)F)c(CSCC2CC2)c1Cl [Example 1-314]
herbicidal activity SETVI (Setaria viridis [1]): 100% | herbicidal activity VIOTR (Viola tricolor): 100% | herbicidal action AMARE (Amaranthus retroflexus; post-emergence, dosage 80 g/ha): 100% | herbicidal action SETVI (Setaria viridis [2]; post-emergence, dosage 80 g/ha): 100% | herbicidal action STEME (Stellaria media; post-emergence, dosage 80 g/ha): 100% | herbicidal action VERPE (Veronica persica; post-emergence, dosage 80 g/ha): 100%

CCCn1nnnc1NC(=O)c1ccc(C(F)F)c(CS(C)(=O)=O)c1Cl [Example 3-322]
herbicidal activity SETVI (Setaria viridis [1]): 100% | herbicidal activity VIOTR (Viola tricolor): 100% | herbicidal action AMARE (Amaranthus retroflexus; Dosage 80 g/ha): 90 | herbicidal action SETVI (Setaria viridis [2]; Dosage 80 g/ha): 80 | herbicidal action STEME (Stellaria media; Dosage 80 g/ha): 100 | herbicidal action VERPE (Veronica persica; Dosage 80 g/ha): 80

CCCn1nnnc1NC(=O)c1ccc(C(F)F)c(CSCC)c1Cl [Example 3-323]
herbicidal activity SETVI (Setaria viridis [1]): 100% | herbicidal activity VIOTR (Viola tricolor): 100% | herbicidal action AMARE (Amaranthus retroflexus; Dosage 80 g/ha): 90 | herbicidal action SETVI (Setaria viridis [2]; Dosage 80 g/ha): 100 | herbicidal action STEME (Stellaria media; Dosage 80 g/ha): 100 | herbicidal action VERPE (Veronica persica; Dosage 80 g/ha): 90

Cn1nnnc1NC(=O)c1ccc(C(F)F)c(CS(C)(=O)=O)c1Cl [Example 1-322]
herbicidal activity SETVI (Setaria viridis [1]): 100% | herbicidal activity VIOTR (Viola tricolor): 100% | herbicidal action AMARE (Amaranthus retroflexus; post-emergence, dosage 80 g/ha): 80% | herbicidal action SETVI (Setaria viridis [2]; post-emergence, dosage 80 g/ha): 100% | herbicidal action STEME (Stellaria media; post-emergence, dosage 80 g/ha): 100% | herbicidal action VERPE (Veronica persica; post-emergence, dosage 80 g/ha): 100%

CCn1nnnc1NC(=O)c1ccc(C(F)(F)F)c(C[S+]([O-])CC)c1Br (centres unmarked) [Example 2-384]
herbicidal activity SETVI (Setaria viridis [1]): 100% | herbicidal activity VIOTR (Viola tricolor): 100% | herbicidal action AMARE (Amaranthus retroflexus; post-emergence, dosage 80 g/ha): 90% | herbicidal action SETVI (Setaria viridis [2]; post-emergence, dosage 80 g/ha): 90% | herbicidal action STEME (Stellaria media; post-emergence, dosage 80 g/ha): 100% | herbicidal action VERPE (Veronica persica; post-emergence, dosage 80 g/ha): 100%

CC[S+]([O-])Cc1c(C(F)(F)F)ccc(C(=O)Nc2nnnn2C)c1Br (racemic) [Example 1-384]
Herbicidal action against SETVI (Setaria viridis [1]; [3]): 100 | herbicidal activity SETVI (Setaria viridis [1]): 100% | Herbicidal action against VIOTR (Viola tricolor; [3]): 100 | herbicidal activity VIOTR (Viola tricolor): 100% | Herbicidal action against AMARE (Amaranthus retroflexus; [4]): 90 | herbicidal action AMARE (Amaranthus retroflexus; post-emergence, dosage 80 g/ha): 90% | Herbicidal action against SETVI (Setaria viridis [2]; [4]): 90 | herbicidal action SETVI (Setaria viridis [2]; post-emergence, dosage 80 g/ha): 90% | herbicidal action STEME (Stellaria media; post-emergence, dosage 80 g/ha): 90% | Herbicidal action against VERPE (Veronica persica; [4]): 100 | herbicidal action VERPE (Veronica persica; post-emergence, dosage 80 g/ha): 100%

CCCn1nnnc1NC(=O)c1ccc(C(F)(F)F)c(CS(C)(=O)=O)c1SC [Example 3-163]
herbicidal activity SETVI (Setaria viridis [1]): 100% | herbicidal activity VIOTR (Viola tricolor): 100% | herbicidal action AMARE (Amaranthus retroflexus; Dosage 80 g/ha): 90 | herbicidal action SETVI (Setaria viridis [2]; Dosage 80 g/ha): 90 | herbicidal action STEME (Stellaria media; Dosage 80 g/ha): 100 | herbicidal action VERPE (Veronica persica; Dosage 80 g/ha): 100

CCn1nnnc1NC(=O)c1ccc(C(F)(F)F)c(CS(C)(=O)=O)c1Cl [Example 2-298]
herbicidal activity SETVI (Setaria viridis [1]): 100% | herbicidal activity VIOTR (Viola tricolor): 100% | herbicidal action AMARE (Amaranthus retroflexus; Dosage 80 g/ha): 90 | herbicidal action SETVI (Setaria viridis [2]; Dosage 80 g/ha): 90 | herbicidal action STEME (Stellaria media; Dosage 80 g/ha): 100 | herbicidal action VERPE (Veronica persica; Dosage 80 g/ha): 100

CCCn1nnnc1NC(=O)c1ccc(C(F)(F)F)c(CS(C)(=O)=O)c1Cl [Example 3-298]
herbicidal activity SETVI (Setaria viridis [1]): 100% | herbicidal activity VIOTR (Viola tricolor): 100% | herbicidal action AMARE (Amaranthus retroflexus; Dosage 80 g/ha): 100 | herbicidal action SETVI (Setaria viridis [2]; Dosage 80 g/ha): 80 | herbicidal action STEME (Stellaria media; Dosage 80 g/ha): 100 | herbicidal action VERPE (Veronica persica; Dosage 80 g/ha): 100
